# Assay results published in patent US11395847B2, “Acylated GLP-1/GLP-2 dual agonists” (Zealand Pharma A/S, priority 2016, dated 2022).
# Where two headings read alike, the source gives them in different places. *1 amine or outer side, *2 acyl side, *3 side chain or, on linkers, in order; H or OH if unused. Where a SMILES comes first, the peptide text is derived from it. Side-chain parts run from the residue outwards. [ ]: non-standard residue; d: D form. The star is where a group is joined. C20 diacid = O=C(O)CCCCCCCCCCCCCCCCCCC(=O)*; γGlu = O=C(O)[C@H](CCC(=O)[*:2])N[*:1]; AEEA = NCCOCCOCC(=O)O; Aib = CC(C)(N)C(=O)O
# Columns and labels:
# [1] = Chemical stability (RP-HPLC normalized purity after incubation at 40° C.); type: physicochemical; settings: pH 7, 40° C., 14-day incubation, 0.2 mg/ml, normalized purity (area-%)
# Procedure: Samples of each test peptide were dissolved in MILLIQ™ water, and the pH of the solution was adjusted to pH 6, 7, 7.5 or 9 using either HCl or NaOH. The final peptide concentration was 0.2 mg/ml. Samples were placed in glass vials and incubated at 40° C. The samples were analyzed by RP-HPLC on a C18 column with gradient elution using an acetonitrile/TFA/water eluent system. The area-percentage (area-%) of the main peak after incubation time T=t (relative to time T=0) was determined by UV spectroscopy at 220 nm.
# The purity was first determined as follows: Purity(area-%)=(area of main peak/total area of all peaks)×100.
# The purity was then normalized between time points by setting purity at time 0 (T=0) to 100 for each pH value for a given peptide, as follows: Normalized area-% at time t(T=t)=[area-%(T=t)/area-%(T=0)]×100.
# The chemical stability assessment results after 14-day incubation (in the form of normalized purity values) are summarized in Table 4.
# [2] = Solubility assessment (turbidity absorbance at 325 nm); type: physicochemical
# Procedure: A stock solution of the test peptide (2 mg/ml; determined from the weighed amount of peptide) in demineralized water adjusted to pH 2.5 with HCl was prepared, and aliquots were diluted 1:1 in 100 mM acetate buffer (pH 4.0 and pH 5.0), 100 mM histidine buffer (pH 6.0 and pH 7.0) and 100 mM phosphate buffer (pH 6.0, pH 7.0 and pH 7.5), respectively, and loaded in a standard flat-bottom, non-sterile 96-well UV Microplate. The absorbance of samples (single samples, n=1) at 280 and 325 nm was measured in an absorbance-based plate reader, which was preheated to ambient temperature (typically 25° C.).
# [3] = 100 mM acetate buffer pH 4.0, ambient temperature, read-out: Solubility Acetate buffer pH 4
# [4] = 100 mM acetate buffer pH 5.0, ambient temperature, read-out: Solubility Acetate buffer pH 5
# [5] = 100 mM histidine buffer pH 6.0, ambient temperature, read-out: Solubility Histidine buffer pH 6
# [6] = 100 mM histidine buffer pH 7.0, ambient temperature, read-out: Solubility Histidine buffer pH 7
# [7] = 100 mM phosphate buffer pH 6.0, ambient temperature, read-out: Solubility Phosphate buffer pH 6
# [8] = 100 mM phosphate buffer pH 7.0, ambient temperature, read-out: Solubility Phosphate buffer pH 7
# [9] = 100 mM phosphate buffer pH 7.5, ambient temperature, read-out: Solubility Phosphate buffer pH 7.5
Compound,pH 7 normalized stability [1],"solubility [2, 3] [µg/mL]","solubility [2, 4] [µg/mL]","solubility [2, 5] [µg/mL]","solubility [2, 6] [µg/mL]","solubility [2, 7] [µg/mL]","solubility [2, 8] [µg/mL]","solubility [2, 9] [µg/mL]"
"CC[C@H](C)[C@H](NC(=O)[C@H](Cc1ccccc1)NC(=O)[C@H](CC(=O)O)NC(=O)[C@H](CCCNC(=N)N)NC(=O)[C@H](C)NC(=O)[C@H](C)NC(=O)[C@H](CCC(N)=O)NC(=O)[C@H](CCCCNC(=O)CC[C@H](NC(=O)CCCCCCCCCCCCCCCCC(=O)O)C(=O)O)NC(=O)[C@H](CC(=O)O)NC(=O)[C@H](CC(C)C)NC(=O)[C@@H](NC(=O)[C@@H](NC(=O)[C@H](C)NC(=O)[C@H](CC(C)C)NC(=O)[C@H](CCC(=O)O)NC(=O)[C@H](CO)NC(=O)[C@H](CO)NC(=O)[C@H](Cc1ccccc1)NC(=O)[C@@H](NC(=O)CNC(=O)[C@H](CCC(=O)O)NC(=O)C(C)(C)NC(=O)[C@@H](N)Cc1c[nH]cn1)[C@@H](C)O)[C@@H](C)O)[C@@H](C)CC)C(=O)N[C@@H](C)C(=O)N[C@@H](Cc1c[nH]c2ccccc12)C(=O)N[C@@H](CC(C)C)C(=O)N[C@H](C(=O)N[C@@H](CCC(=O)O)C(=O)N[C@@H](Cc1c[nH]cn1)C(=O)N[C@@H](CCCCN)C(=O)N[C@H](C(=O)N[C@H](C(=O)N[C@@H](CC(=O)O)C(=O)O)[C@@H](C)O)[C@@H](C)CC)[C@@H](C)CC [Compound 20] (HELM PEPTIDE1{H.[Aib].E.G.T.F.S.S.E.L.A.T.I.L.D.K.Q.A.A.R.D.F.I.A.W.L.I.E.H.K.I.T.D}|PEPTIDE2{[O=C(O)CCCCCCCCCCCCCCCCC(=O)[*:2]].[gGlu]}$PEPTIDE1,PEPTIDE2,16:R3-2:R2$$$V2.0)",–,< 1000,< 1000,≥ 1000,≥ 1000,≥ 1000,≥ 1000,≥ 1000
"CC[C@H](C)[C@H](NC(=O)[C@H](Cc1ccccc1)NC(=O)[C@H](CC(=O)O)NC(=O)[C@H](CCCNC(=N)N)NC(=O)[C@H](C)NC(=O)[C@H](C)NC(=O)[C@H](CCC(N)=O)NC(=O)[C@H](CCCCNC(=O)CC[C@H](NC(=O)CCCCCCCCCCCCCCCCC(=O)O)C(=O)O)NC(=O)[C@H](CC(=O)O)NC(=O)[C@H](CC(C)C)NC(=O)[C@@H](NC(=O)[C@@H](NC(=O)[C@H](C)NC(=O)[C@H](CC(C)C)NC(=O)[C@H](CCC(=O)O)NC(=O)[C@H](CO)NC(=O)[C@@H](NC(=O)[C@H](Cc1ccccc1)NC(=O)[C@H](CO)NC(=O)CNC(=O)[C@H](CCC(=O)O)NC(=O)C(C)(C)NC(=O)[C@@H](N)Cc1c[nH]cn1)[C@@H](C)O)[C@@H](C)O)[C@@H](C)CC)C(=O)N[C@@H](C)C(=O)N[C@@H](Cc1c[nH]c2ccccc12)C(=O)N[C@@H](CC(C)C)C(=O)N[C@H](C(=O)N[C@@H](Cc1ccc(O)cc1)C(=O)N[C@@H](Cc1c[nH]cn1)C(=O)N[C@@H](CCCCN)C(=O)N[C@H](C(=O)N[C@H](C(=O)N[C@@H](CC(=O)O)C(=O)O)[C@@H](C)O)[C@@H](C)CC)[C@@H](C)CC [Compound 27] (HELM PEPTIDE1{H.[Aib].E.G.S.F.T.S.E.L.A.T.I.L.D.K.Q.A.A.R.D.F.I.A.W.L.I.Y.H.K.I.T.D}|PEPTIDE2{[O=C(O)CCCCCCCCCCCCCCCCC(=O)[*:2]].[gGlu]}$PEPTIDE1,PEPTIDE2,16:R3-2:R2$$$V2.0)",–,< 1000,< 1000,≥ 1000,≥ 1000,≥ 1000,≥ 1000,≥ 1000

# Other lines, results leading:
pH 7 normalized stability [1],"solubility [2, 3] [µg/mL]","solubility [2, 4] [µg/mL]","solubility [2, 5] [µg/mL]","solubility [2, 6] [µg/mL]","solubility [2, 7] [µg/mL]","solubility [2, 8] [µg/mL]","solubility [2, 9] [µg/mL]",Compound
A (>90% normalised stability),–,–,–,–,–,–,–,"CC[C@H](C)[C@H](NC(=O)[C@H](Cc1ccccc1)NC(=O)[C@H](CC(=O)O)NC(=O)[C@H](CCCCNC(=O)COCCOCCNC(=O)[C@H](CCCCN)NC(=O)[C@H](CCC(=O)O)NC(=O)[C@H](CCCCN)NC(=O)CC[C@H](NC(=O)CCCCCCCCCCCCCCCCCCC(=O)O)C(=O)O)NC(=O)[C@H](C)NC(=O)[C@H](C)NC(=O)[C@H](CCCCN)NC(=O)[C@H](C)NC(=O)[C@H](CC(=O)O)NC(=O)[C@H](CC(C)C)NC(=O)[C@@H](NC(=O)[C@@H](NC(=O)[C@H](C)NC(=O)[C@H](CC(C)C)NC(=O)[C@H](CCC(=O)O)NC(=O)[C@H](CO)NC(=O)[C@@H](NC(=O)[C@H](Cc1ccccc1)NC(=O)[C@H](CO)NC(=O)CNC(=O)[C@H](CCC(=O)O)NC(=O)C(C)(C)NC(=O)[C@@H](N)Cc1c[nH]cn1)[C@@H](C)O)[C@@H](C)O)[C@@H](C)CC)C(=O)N[C@@H](C)C(=O)N[C@@H](Cc1c[nH]c2ccccc12)C(=O)N[C@@H](CC(C)C)C(=O)N[C@H](C(=O)N[C@@H](CCC(=O)O)C(=O)N[C@@H](Cc1c[nH]cn1)C(=O)N[C@@H](CCCCN)C(=O)N[C@H](C(=O)N[C@H](C(=O)N[C@@H](CC(=O)O)C(=O)O)[C@@H](C)O)[C@@H](C)CC)[C@@H](C)CC [Compound 68] (HELM PEPTIDE1{H.[Aib].E.G.S.F.T.S.E.L.A.T.I.L.D.A.K.A.A.K.D.F.I.A.W.L.I.E.H.K.I.T.D}|PEPTIDE2{[O=C(O)CCCCCCCCCCCCCCCCCCC(=O)[*:2]].[gGlu].K.E.K.[O=C(COCCOCCN[*:1])[*:2]]}$PEPTIDE1,PEPTIDE2,20:R3-6:R2$$$V2.0)"
A (>90% normalised stability),–,–,–,–,–,–,–,CC[C@H](C)[C@H](NC(=O)[C@H](Cc1ccccc1)NC(=O)[C@H](CC(=O)O)NC(=O)[C@H](CCCNC(=N)N)NC(=O)[C@H](C)NC(=O)[C@H](C)NC(=O)[C@H](CCC(N)=O)NC(=O)[C@H](CCC(=O)O)NC(=O)[C@H](CC(=O)O)NC(=O)[C@H](CC(C)C)NC(=O)[C@@H](NC(=O)[C@@H](NC(=O)[C@H](C)NC(=O)[C@H](CCCCNC(=O)COCCOCCNC(=O)COCCOCCNC(=O)[C@H](CCCCN)NC(=O)[C@H](CCC(=O)O)NC(=O)[C@H](CCCCN)NC(=O)CC[C@H](NC(=O)CCCCCCCCCCCCCCCCCCC(=O)O)C(=O)O)NC(=O)[C@H](CCC(=O)O)NC(=O)[C@H](CO)NC(=O)[C@@H](NC(=O)[C@H](Cc1ccccc1)NC(=O)[C@H](CO)NC(=O)CNC(=O)[C@H](CCC(=O)O)NC(=O)C(C)(C)NC(=O)[C@@H](N)Cc1c[nH]cn1)[C@@H](C)O)[C@@H](C)O)[C@@H](C)CC)C(=O)N[C@@H](C)C(=O)N[C@@H](Cc1c[nH]c2ccccc12)C(=O)N[C@@H](CC(C)C)C(=O)N[C@H](C(=O)N[C@@H](CCC(=O)O)C(=O)N[C@@H](Cc1c[nH]cn1)C(=O)N[C@@H](CCCCN)C(=O)N[C@H](C(=O)N[C@H](C(=O)N[C@@H](CC(=O)O)C(=O)O)[C@@H](C)O)[C@@H](C)CC)[C@@H](C)CC [Compound 55] (H-H[Aib]EGSFTSEK([AEEA-AEEA-Lys-Glu-Lys-γGlu-C20 diacid])ATILDEQAARDFIAWLIEHKITD-OH)
–,< 1000,< 1000,< 1000,≥ 1000,< 1000,< 1000,≥ 1000,"CC[C@H](C)[C@H](NC(=O)[C@H](Cc1ccccc1)NC(=O)[C@H](CC(=O)O)NC(=O)[C@H](CCCNC(=N)N)NC(=O)[C@H](C)NC(=O)[C@H](C)NC(=O)[C@H](CC(C)C)NC(=O)[C@H](CC(N)=O)NC(=O)[C@H](CC(=O)O)NC(=O)[C@H](CC(C)C)NC(=O)[C@@H](NC(=O)[C@@H](NC(=O)[C@H](CC(N)=O)NC(=O)[C@H](CCSC)NC(=O)[C@H](CCC(=O)O)NC(=O)[C@H](CC(=O)O)NC(=O)[C@H](CO)NC(=O)[C@H](Cc1ccccc1)NC(=O)[C@H](CO)NC(=O)CNC(=O)[C@H](CC(=O)O)NC(=O)CNC(=O)[C@@H](N)Cc1c[nH]cn1)[C@@H](C)O)[C@@H](C)CC)C(=O)N[C@@H](CC(N)=O)C(=O)N[C@@H](Cc1c[nH]c2ccccc12)C(=O)N[C@@H](CC(C)C)C(=O)N[C@H](C(=O)N[C@@H](CCC(N)=O)C(=O)N[C@H](C(=O)N[C@@H](CCCCN)C(=O)N[C@H](C(=O)N[C@H](C(=O)N[C@@H](CC(=O)O)C(=O)O)[C@@H](C)O)[C@@H](C)CC)[C@@H](C)O)[C@@H](C)CC [Teduglutide, [Gly2]-hGLP-2 (1-33), reference compound]"
